From patent US6054114A, “Organometallic ligands for the localization and quantification of amyloid in vivo and in vitro” (priority 1997, dated 2000)
Like-named read-outs stand apart in the source and are kept apart here.

Experiments:
β1-40 amyloid fibrils = biological target: T1, β1-40 amyloid fibrils (Homo sapiens, UniProt P05067); experiment: Competitive displacement of labeled complexes 3 or 6 from β1-40 fibrils; type: binding; settings: 25° C., pH 7.4, mean (±S.D.)
T1 construct: Aggregated β1-40 peptides (Bachem, Torrance, Calif); purchased Bachem, Torrance, Calif
T1 sequence (P05067 672-711 limits assumed): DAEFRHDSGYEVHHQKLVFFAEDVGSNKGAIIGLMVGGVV
Protocol: Dissociation constants, IC50 and inhibition constants were determined. Aggregated β1-40 peptides (Bachem, Torrance, Calif.; peptide concentrations were determined by amino acid analysis) were prepared by stirring supersaturated solutions of peptide (100 μM) in the standard buffer (10 mM NaH2 PO4, pH 7.4) at room temperature for at least 72 h and remained stirring while aliquots were taken. […] The solution was briefly vortexed and allowed to equilibrate at room temperature for 2 h. The solution was centrifuged for 1 min at 14,000 rpm (16,000 g) and the amount of the labeled ligand bound ([B]) to fibrils was obtained by measuring the radioactivity of the pellets or calculated using the equation [B] =[T] - [F] where [F] is the concentration of the labeled ligand in the supernatant (i.e., amount unbound or free) and [T] is the total amount of the labeled ligand added. A Scatchard plot was used to obtain [B]max (apparent maximum amount of the labeled ligand bound to fibrils) and Kd. (Freifelder, D., Physical Biochemistry: Applications to Biochemistry and Molecular Biology, 2nd ed.; W. H. Freeman & Co., N. Y. Chapter 10, p. 654 (1982)). The [B]max was based on total protein concentration. […] The IC50 value was used to calculate the inhibition constant Ki. (Cheng et al., Biochem. Pharmacol. 22:3099-3108 (1973)).
The relative affinities (Ki 's) of the free bipyridyl ligands were determined by displacement of complexes 3 or 6 (see Table 1). […] The stoichiometry of saturation, as estimated by Scatchard analysis of the binding curves, differed slightly, with 2.7 moles of 3 and 1.6 moles of 6 bound per mole of β1-40.

Peptide solubility = type: physicochemical; settings: 10 mm nah2po4 buffer, pH 7.4
[1] = [Tc(CNtBu)4 (bpcg)]^+ (6) as labeled ligand, read-out: Inhibition constant (Ki) for β1-40 fibrils
[2] = [Tc(CNtBu)4 (bpcr)]^+ (3) as labeled ligand, read-out: Inhibition constant (Ki) for β1-40 fibrils

Ki (β1-40 amyloid fibrils; [1]) [nM] | Ki (β1-40 amyloid fibrils; [2]) [nM] | Compound | Ki (β1-40 amyloid fibrils; Inhibition constant (Ki) for β1-40 fibrils, [Tc(CNtBu)4 (bpcg)]^+ (6) as labeled ligand) [nM] | Ki (β1-40 amyloid fibrils; Inhibition constant (Ki) for β1-40 fibrils, [Tc(CNtBu)4 (bpcr)]^+ (3) as labeled ligand) [nM] | solubility (Peptide solubility)
 |  | Nc1c(/N=N/c2ccc(-c3ccc(/N=N/c4cc(S(=O)(=O)O)c5ccccc5c4N)cc3)cc2)cc(S(=O)(=O)O)c2ccccc12 [Congo Red (1), Congo Red, reference compound] | 560 | 460 | 
480 | 510 | Nc1c(N=Nc2ccc(-c3ccc(N=Nc4cc(S(=O)(=O)O)c5ccccc5c4N)cn3)nc2)cc(S(=O)(=O)O)c2ccccc12 [compound 2, Bipyridyl-Congo Red] |  |  | 
420 | 760 | O=C(O)c1cc(N=Nc2ccc(-c3ccc(N=Nc4ccc(O)c(C(=O)O)c4)cn3)nc2)ccc1O [compound 5, bipyridal-Chrysamine G] |  |  | 
 |  | β1-40: β1-40 amyloid peptide (Bachem), C-terminally truncated relative of Aβ1-42 |  |  | ca. 1 μM
